This note sets out measurements from ChEMBL document CHEMBL1142990, “Self-organizing maps for identification of new inhibitors of P-glycoprotein” (J Med Chem, 2007).

The target of this experiment is ATP-dependent translocase ABCB1 (Homo sapiens, UniProt P08183). Kind of experiment: Inhibition of P-glycoprotein expressed in MDR CCRF vcr1000 cells by daunorubicin efflux assay.

In general, EC50 refers to the concentration at which the effect is half-maximal. Lower therefore signals greater potency.

ATP-dependent translocase ABCB1, sequence (P08183 whole entry): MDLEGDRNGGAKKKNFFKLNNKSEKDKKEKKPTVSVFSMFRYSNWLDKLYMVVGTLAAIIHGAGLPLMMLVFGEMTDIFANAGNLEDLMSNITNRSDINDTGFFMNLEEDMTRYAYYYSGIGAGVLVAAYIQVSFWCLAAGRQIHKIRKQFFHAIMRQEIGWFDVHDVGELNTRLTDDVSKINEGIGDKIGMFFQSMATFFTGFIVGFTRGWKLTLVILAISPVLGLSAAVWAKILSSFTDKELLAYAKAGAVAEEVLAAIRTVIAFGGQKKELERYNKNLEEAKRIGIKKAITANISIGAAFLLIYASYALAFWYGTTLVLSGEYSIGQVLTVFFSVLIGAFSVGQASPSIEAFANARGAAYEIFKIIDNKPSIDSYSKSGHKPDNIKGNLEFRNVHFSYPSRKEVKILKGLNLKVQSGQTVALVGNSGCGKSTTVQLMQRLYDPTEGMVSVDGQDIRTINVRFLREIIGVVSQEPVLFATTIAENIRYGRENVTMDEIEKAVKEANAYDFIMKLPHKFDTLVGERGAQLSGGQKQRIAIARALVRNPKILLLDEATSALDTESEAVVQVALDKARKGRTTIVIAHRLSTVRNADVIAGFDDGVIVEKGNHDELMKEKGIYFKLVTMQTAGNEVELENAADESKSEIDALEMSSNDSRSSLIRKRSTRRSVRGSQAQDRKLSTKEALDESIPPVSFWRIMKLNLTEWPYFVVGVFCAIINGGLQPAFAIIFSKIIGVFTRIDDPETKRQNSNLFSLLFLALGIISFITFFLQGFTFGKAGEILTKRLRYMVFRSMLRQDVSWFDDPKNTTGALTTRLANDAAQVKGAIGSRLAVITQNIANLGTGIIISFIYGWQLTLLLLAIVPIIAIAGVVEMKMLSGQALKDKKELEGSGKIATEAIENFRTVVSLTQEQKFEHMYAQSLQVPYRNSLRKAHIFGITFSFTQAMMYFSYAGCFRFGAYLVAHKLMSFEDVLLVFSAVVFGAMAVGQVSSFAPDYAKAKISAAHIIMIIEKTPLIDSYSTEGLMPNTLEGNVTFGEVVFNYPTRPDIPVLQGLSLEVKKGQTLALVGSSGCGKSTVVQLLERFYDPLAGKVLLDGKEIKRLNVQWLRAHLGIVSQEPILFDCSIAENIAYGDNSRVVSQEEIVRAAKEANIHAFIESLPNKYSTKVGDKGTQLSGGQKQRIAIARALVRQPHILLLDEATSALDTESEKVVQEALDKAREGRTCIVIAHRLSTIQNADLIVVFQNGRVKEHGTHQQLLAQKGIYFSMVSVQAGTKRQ

For the compound `CC(C)N(CC(O)COc1ccccc1C(=O)CCc1cccc2ccccc12)C(C)C` (stereo not drawn), a half-maximal response (EC50) required 0.465 µM. Compound `CC(C)N(CC(O)COc1ccc(O)cc1C(=O)CCc1ccccc1)C(C)C` (stereo not drawn) displayed an EC50 of 1.04 µM. The compound `O=C(CCc1ccccc1)c1ccccc1OCC(O)CN1CCC(O)(c2ccccc2)CC1` (stereo not drawn) displayed a half-maximal effective concentration (EC50) of 0.058 µM. The value for `COc1ccc(C2Nc3ccccc3C(=O)N2c2ccc(NC(C)=O)cc2)cc1` (stereo not drawn) was 20.9 µM. `O=C(CCc1ccccc1)c1ccc(OCC(O)CN2CCN(c3ccc(F)cc3)CC2)cc1` (stereo not drawn): the concentration giving a half-maximal response (EC50) amounted to 2.54 µM. With `CCOC(=O)COc1ccccc1C(=O)CCc1ccccc1`, the concentration giving a half-maximal response (EC50) was determined as 23.2 µM. Compound `COc1ccccc1N1CCN(CC(O)c2oc3ccccc3c2CCc2ccccc2)CC1` (stereo not drawn) displayed an EC50 of 0.177 µM.

`CC(=O)c1c(C)cc(C)c(CSc2nc3ccc(NC(=O)CCc4ccccc4)cc3s2)c1C` registered a 50% effective concentration (EC50) of 0.3 µM. With `O=C(CCc1ccccc1)c1ccccc1OCCN1CCCCC1`, a half-maximal effect (EC50) was put at 1.45 µM. For `COc1ccc(OCC(O)CN2CCN(c3ccccc3C)CC2)c(C(=O)CCc2ccccc2)c1` (stereo not drawn), the EC50 turned out to be 0.179 µM. The compound `COc1ccc(N2CCN(CC(O)COc3ccccc3C(=O)CCc3ccccc3)CC2)cc1` (stereo not drawn) returned an EC50 of 0.256 µM. Compound `CC(C)(C)c1ccc(C(=O)Nc2ccc3nc(SCc4cccc5ccccc45)sc3c2)cc1` displayed an EC50 greater than 20 µM. Next, `O=C(CCc1ccccc1)c1cccc(OCC(O)CNCCC(c2ccccc2)c2ccccc2)c1` (stereo not drawn): 0.19 µM; `O=C(CCc1ccccc1)c1ccccc1OCC(O)CNC1CCCCC1` (stereo not drawn): 0.341 µM. `CCC(=O)N(Cc1ccccc1)CC(O)COc1ccccc1C(=O)CCc1ccccc1` (stereo not drawn): the EC50 came out at 1.65 µM. The value for `O=C(CCc1ccccc1)c1ccccc1OCC(O)CNc1ccccc1` (stereo not drawn) was 6.47 µM. On to `COC(CCc1ccccc1)c1ccccc1OCC(O)CN(C(C)C)C(C)C` (stereo not drawn), for which a half-maximal response (EC50) required 0.658 µM. As for `Cc1ccccc1N1CCN(CC(O)COc2ccc(Cl)cc2C(=O)CCc2ccccc2)CC1` (stereo not drawn), it took 0.059 µM to reach a half-maximal effect (EC50).

In turn, `O=C(CCc1ccccc1)c1ccccc1OCC(O)CNc1ccc(C(F)(F)F)cc1` (stereo not drawn) displayed an EC50 of 8.49 µM. In turn, `Cc1cccc(N2CCN(CC(O)COc3ccc(C(=O)CCc4ccccc4)cc3)CC2)c1C` (stereo not drawn) came in with an EC50 of 0.227 µM. Next, `Cc1ccccc1N1CCN(CC(O)COc2ccccc2C(=O)CCc2ccc(N(C)C)cc2)CC1` (stereo not drawn): 0.013 µM; `O=C(c1ccccc1)c1ccccc1OCC(O)CN1CCN(c2ccc(F)cc2)CC1` (stereo not drawn): 0.147 µM; `O=C(CCc1ccccc1)c1cc(OCc2ccccc2)ccc1OCC(O)CN1CCN(Cc2ccccc2)CC1` (stereo not drawn): 0.116 µM.

`COc1ccc(CCC(=O)c2ccccc2OCC(O)CN2CCN(c3ccccc3C)CC2)cc1` (stereo not drawn): the midpoint of the response, the EC50, lay at 0.014 µM. As to `COC(CCc1ccccc1)c1ccccc1OCC(O)CN1CCN(c2ccc(F)cc2)CC1` (stereo not drawn), it took 0.226 µM to reach a half-maximal effect (EC50). `O=C(O)COc1ccccc1C(=O)CCc1ccccc1` had an EC50 of 1590 µM. In turn, `CC(=O)c1c(C)cc(C)c(CSc2nc3ccc(NC(=O)c4ccc(C(C)(C)C)cc4)cc3s2)c1C` yielded an EC50 of 0.28 µM.

In the case of `CC(=O)c1ccccc1OCC(O)CN1CCOCC1` (stereo not drawn), the EC50 came out at 207 µM. Regarding `CC1Cc2cccc(OCC(O)CN3CCCCC3)c2C1=O` (stereo not drawn), the EC50 was 9.68 µM.

In the case of `Cc1ccccc1N1CCN(CC(O)COc2ccccc2C(=O)CCc2ccc(Cl)cc2)CC1` (stereo not drawn), the EC50 was 0.019 µM.

Turning to `CCC(C)c1ccc(N2C(=O)c3ccccc3NC2c2ccc(C(C)C)cc2)cc1` (stereo not drawn), the EC50 was 0.29 µM. In the case of `CCC(=O)c1ccccc1OCC(O)CN1CCOCC1` (stereo not drawn), the EC50 is 67 µM.

Turning to `O=C(CCc1ccccc1)c1ccccc1OCC(O)CN1CCN(c2ccccc2)CC1` (stereo not drawn), a half-maximal response (EC50) required 0.61 µM. `O=C(CCc1ccccc1)c1ccccc1OCC(O)CN1CCOCC1` (stereo not drawn) had an EC50 of 3.65 µM. For `CC(=O)c1c(C)cc(C)c(CSc2nc3ccc(NC(=O)c4cccc5ccccc45)cc3s2)c1C`, the EC50 was 0.11 µM. In the case of `COc1cccc(N2CCN(CC(O)COc3ccccc3C(=O)CCc3ccccc3)CC2)c1` (stereo not drawn), a half-maximal effect (EC50) was put at 0.678 µM. `Cc1ccc(-c2n[nH]c3c2C(c2ccc(N(C)C)cc2)C(C#N)=C(N)O3)cc1` (stereo not drawn) displayed a half-maximal effective concentration (EC50) of 3.08 µM. `Cc1ccccc1N1CCN(CC(O)COc2cc(Cl)c(Cl)cc2C(=O)CCc2ccccc2)CC1` (stereo not drawn) yielded an EC50 of 0.017 µM. Next, `CN(C)c1ccc(-c2nc(C(F)(F)F)nc(C(F)(F)F)n2)cc1`: greater than 100 µM; `CC(C)(C)c1ccc(CSc2nc3ccc(NC(=O)c4ccc(C(C)(C)C)cc4)cc3s2)cc1`: greater than 50 µM; `O=C(CCc1ccccc1)c1ccccc1OCC(O)CN(C(c1ccccc1)c1ccccc1)C(c1ccccc1)c1ccccc1` (stereo not drawn): 10.4 µM.

Compound `CC(=O)c1ccc(OCC(O)CNCCC(c2ccccc2)c2ccccc2)cc1` (stereo not drawn) came in with an EC50 of 0.178 µM. With `O=C(CCc1cccc2ccccc12)c1ccccc1OCC(O)CN1CCC(O)(c2ccccc2)CC1` (stereo not drawn), the 50% effective concentration (EC50) is 0.075 µM. `CCCNCC(O)c1oc2ccccc2c1CC` (stereo not drawn) had an EC50 of 11.5 µM. The value for `CCc1ccc(N2C(=O)c3ccccc3NC2c2ccc(OCC(C)C)cc2)cc1` (stereo not drawn) was 1.21 µM. In turn, `O=C1c2c(cccc2OCC(O)CN2CCCCC2)CC1Cc1ccccc1` (stereo not drawn) returned a concentration for a half-maximal effect (EC50) of 0.212 µM. For the compound `Cc1ccc(OCC(O)CN2CCN(c3ccccc3C)CC2)c(C(=O)CCc2ccccc2)c1` (stereo not drawn), the EC50 is 0.026 µM.

The compound `CC(=O)c1ccc(OCC(O)CN2CCN(c3ccc(F)cc3)CC2)cc1` (stereo not drawn) returned a concentration giving a half-maximal response (EC50) of 11.9 µM. `Cc1ccccc1N1CCN(CC(O)COc2cccc(C(=O)CCc3ccccc3)c2)CC1` (stereo not drawn) had an EC50 of 0.074 µM. Compound `COc1ccc(C(=O)CCc2ccccc2)c(OCC(O)CN2CCN(c3ccccc3C)CC2)c1` (stereo not drawn) showed an EC50 of 0.296 µM. Regarding `O=C(N/N=C/c1c(F)cccc1Cl)C(=O)N1CCCCCC1`, the EC50 was found to be 159 µM. The value for `CC1c2ccccc2OC1C(=O)N1CCCCC1` (stereo not drawn) was 104 µM. The value for `O=C(CCc1cccc2ccccc12)c1ccccc1OCC(O)CN1CCOCC1` (stereo not drawn) was 0.73 µM; that for `OC(COc1ccccc1C(O)CCc1ccccc1)CN1CCCCC1` (stereo not drawn) was 0.901 µM. As to `CCCNC[C@H](O)c1oc2ccccc2c1CCc1ccccc1`, the EC50 stood at 1.06 µM.

`CC(=O)c1ccccc1OCC(O)CN1CCC(Cc2ccccc2)CC1` (stereo not drawn) had an EC50 of 0.357 µM. `CC(C)OC(CCc1ccccc1)c1ccccc1OCC(O)CN1CCCCC1` (stereo not drawn): a half-maximal effect (EC50) was put at 0.46 µM. Compound `O=C(CCc1ccccc1)c1ccccc1OCCCCCCN1CCCCC1` showed an EC50 of 0.203 µM. `CC(=O)c1cccc(OCC(O)CN2CCOCC2)c1` (stereo not drawn) registered an EC50 of 128 µM. Take `O=C(CCc1ccccc1)c1ccccc1OCCCCN1CCN(c2ccc(F)cc2)CC1`: the EC50 is 0.192 µM. The value for `O=C(CCc1ccccc1)c1ccccc1OCC(O)CN1CCCCC1` (stereo not drawn) was 0.599 µM; that for `CC(=O)c1ccccc1OCC(O)CN1CCN(c2ccc(F)cc2)CC1` (stereo not drawn) was 2.09 µM. In turn, `CC(=O)c1ccccc1OCC(O)CN1CCC(O)(c2ccccc2)CC1` (stereo not drawn) showed an EC50 of 3.2 µM. Compound `CCC(=O)c1ccccc1OCC(O)CN1CCC(O)(c2ccccc2)CC1` (stereo not drawn) returned a half-maximal effective concentration (EC50) of 0.299 µM. Compound `O=C(CCc1ccccc1)c1ccccc1OCC(O)CNC(c1ccccc1)C1CCCCC1` (stereo not drawn) gave an EC50 of 0.145 µM.

In turn, `O=C(C1Oc2ccccc2C1CCc1ccccc1)N1CCCCC1` (stereo not drawn) registered an EC50 of 6.66 µM. Compound `COc1cccc(/C=N/NC(=O)C(=O)NC(C)(C)C)c1O` had an EC50 of 102 µM. Next, `COC(=O)c1ccc(NCC(O)COc2ccccc2C(=O)CCc2ccccc2)cc1` (stereo not drawn): 1.54 µM; `C=CCn1c(SCCCC)nc2c(c1=O)C1(CCCC1)Cc1ccccc1-2`: 3.5 µM. Consider `CC(C)(C)c1ccc(N2C(=O)c3ccccc3NC2c2ccc3c(c2)OCO3)cc1` (stereo not drawn), for which the EC50 was 0.73 µM.

The compound `O=C(CCc1ccccc1)c1ccccc1OCCCCCN1CCCCC1` returned an EC50 of 0.242 µM. For the compound `O=C(CCc1ccccc1)c1ccccc1OCCCCN1CCCCC1`, the EC50 came to 0.533 µM. For the compound `CC(=O)c1cccc(OCC(O)CN2CCN(c3ccc(F)cc3)CC2)c1` (stereo not drawn), the midpoint of the response, the EC50, lay at 10.1 µM.

Consider `COC(CCc1ccccc1)c1ccccc1OCC(O)CNCCC(c1ccccc1)c1ccccc1` (stereo not drawn), for which the EC50 is 0.752 µM. In the case of `CCC(=O)c1ccccc1OCC(O)CN1CCCCC1` (stereo not drawn), the EC50 came out at 14.3 µM. Turning to `O=C(c1ccccc1)c1ccccc1OCC(O)CN1CCC(O)(c2ccccc2)CC1` (stereo not drawn), the midpoint of the response, the EC50, lay at 0.307 µM. `OC(COc1ccccc1C(O)CCc1ccccc1)CN1CCN(c2ccc(F)cc2)CC1` (stereo not drawn) displayed an EC50 of 0.671 µM.

On to `COc1ccc(-n2c(C3=NNC(=O)CC3)n[nH]c2=S)cc1`, for which the EC50 is greater than 250 µM. As for `O=C(CCc1ccccc1)c1ccccc1OCC(O)CN1CCC(Cc2ccccc2)CC1` (stereo not drawn), the EC50 stood at 0.259 µM. In the case of `CCC(C)c1ccc(C2Nc3ccccc3C(=O)N2c2ccc(Cl)cc2)cc1` (stereo not drawn), the EC50 worked out at 0.82 µM.

Take `c1ccc(CCC2c3ccccc3OC2CN2CCCCC2)cc1` (stereo not drawn): the EC50 came out at 1.62 µM. The value for `O=C(CCc1ccccc1)c1ccc(OCC(O)CN2CCCCC2)cc1` (stereo not drawn) was 0.972 µM; that for `Cc1cc(C)n(-c2nnc(N/N=C\c3cccnc3)nn2)n1` was 158 µM. For the compound `CCN(CC)CC(O)COc1ccccc1C(=O)c1ccccc1` (stereo not drawn), the midpoint of the response, the EC50, lay at 2.32 µM. For the compound `O=C(CCc1ccccc1)c1ccccc1OCC(O)CNCCC(c1ccccc1)c1ccccc1` (stereo not drawn), the 50% effective concentration (EC50) is 0.717 µM. For the compound `O=C(CCc1ccccc1)c1ccccc1OCCCCCCCN1CCCCC1`, the EC50 amounted to 0.179 µM. For `O=C(CCc1ccccc1)c1ccccc1OCCCCCCCCN1CCCCC1`, the concentration giving a half-maximal response (EC50) turned out to be 0.137 µM. With `CCC(C)c1ccc(N2C(=O)c3ccccc3NC2c2ccc(OC)cc2)cc1` (stereo not drawn), the EC50 came out at 0.76 µM. `CC(=O)c1ccc(OCC(O)CN2CCOCC2)cc1` (stereo not drawn) gave an EC50 of 302 µM.

`O=C1CC(CN2CCCCC2)Oc2ccccc21` (stereo not drawn) gave an EC50 of 176 µM. `COc1ccc(CC(O)CO)cc1OC` (stereo not drawn) returned an EC50 greater than 500 µM.

As for `CC(=O)c1cccc(OCC(O)CN2CCCCC2)c1` (stereo not drawn), the EC50 stood at 9.07 µM. For `CCOc1ccccc1NC(=O)C1=C(C)NC(=S)NC1c1cccs1` (stereo not drawn), a half-maximal response (EC50) required 8.77 µM.

`O=C(CCc1ccccc1)c1cc(OCc2ccccc2)ccc1OCC(O)CN1CCCCC1` (stereo not drawn) showed an EC50 of 0.172 µM. The compound `CC(=O)c1cc(C)ccc1OCC(O)CN1CCCCC1` (stereo not drawn) returned an EC50 of 5.47 µM. On to `CC(C)C(NCC(O)COc1ccccc1C(=O)CCc1ccccc1)c1ccccc1` (stereo not drawn), for which the midpoint of the response, the EC50, lay at 0.21 µM. For the compound `CC1c2ccccc2OC1CN1CCCCC1` (stereo not drawn), the concentration for a half-maximal effect (EC50) is 48.9 µM. Regarding `O=C1CCc2c(OCC(O)CN3CCCCC3)cccc21` (stereo not drawn), a half-maximal effect (EC50) was put at 11.2 µM.
